US6339044B1, “N-P-Cyanoaryl nitrogen-containing heterocycles having pendent sulfur-containing groups” (Bayer Aktiengesellschaft, priority 1993, dated 2002)

Tests used:
[1] = tested on: horseradish leaf beetle larvae Phaedon cochleariae; test: Phaedon larvae test; format: in vivo; details: after 3 days, active compound concentration 0.1%, cabbage leaves dipped
Method: Solvent: 7 parts by weight of dimethylformamide
Emulsifier: 1 part by weight of alkylaryl polyglycol ether
To produce an expedient active compound preparation, 1 part by weight of active compound is mixed with the specified amount of solvent and the specified amount of emulsifier and the concentrate is diluted with water to the desired concentration.
Cabbage leaves (Brassica oleracea) are treated by dipping them into the active compound preparation of the desired concentration and populated with horseradish leaf beetle larvae Phaedon cochleariae, as long as the leaves are still moist.
After the desired time, the destruction is determined in %. In the determination, 100% denotes that all beetle larvae have been destroyed; 0% denotes that no beetle larvae have been destroyed.

Ipomoea = test: Post-emergence test, Ipomoea; format: in vivo; details: 30 g per hectare, after three weeks
Method: (§1) To prepare an expedient active compound preparation, 1 part by weight of active compound is mixed with the specified amount of solvent, the specified amount of emulsifier is added and the concentrate is diluted with water to the desired concentration.
(§2) Test plants which have a height of 5-15 cm are sprayed with the active compound preparation in such a way that the amounts of active compound per unit area desired in each case are applied. After three weeks, the degree of damage of the plants is evaluated in % damage in comparison with the development of the untreated control.
(§3) 0% denotes no effect (as untreated control)
(§4) 100% denotes total destruction

Chenopodium = test: Post-emergence test, Chenopodium; format: in vivo; details: 30 g per hectare, after three weeks
Method: as §1, §2, §3, §4

wheat [2] = test: Pre-emergence test, wheat; format: in vivo; details: 60 g per hectare, after three weeks, cultivated plant
Method: as §1
Seeds of the test plants are sown in standard soil and are watered after 24 hours with the active compound preparation. The amount of water per unit area is expediently kept constant during this. The active compound concentration in the preparation is not important, only the application rate of the active compound per unit area is critical. After three weeks, the degree of damage of the plants is evaluated in % damage in comparison with the development of the untreated control. In the evaluation:
as §3, §4

Veronica = test: Post-emergence test, Veronica; format: in vivo; details: 30 g per hectare, after three weeks
Method: as §1, §2, §3, §4

Abutilon = test: Post-emergence test, Abutilon; format: in vivo; details: 30 g per hectare, after three weeks
Method: as §1, §2, §3, §4

Solanum = test: Post-emergence test, Solanum; format: in vivo; details: 30 g per hectare, after three weeks
Method: as §1, §2, §3, §4

wheat [3] = test: Post-emergence test, wheat; format: in vivo; details: 30 g per hectare, after three weeks, cultivated plant
Method: as §1, §2, §3, §4

melting point [°C]	SMILES	degree of destruction [1] [%]	degree of damage of the plants in % damage, Ipomoea (Ipomoea) [%]	degree of damage of the plants in % damage, Chenopodium (Chenopodium) [%]	degree of damage of the plants in % damage, wheat (wheat [2]) [%]	degree of damage of the plants in % damage, Veronica (Veronica) [%]	degree of damage of the plants in % damage, Abutilon (Abutilon) [%]	degree of damage of the plants in % damage, Solanum (Solanum) [%]	degree of damage of the plants in % damage, wheat (wheat [3]) [%]
–	Cn1c(C(F)(F)F)cc(=O)n(-c2cc(F)c(C#N)cc2F)c1=S [Example 3, 1-(4-cyano-2,5-difluoro-phenyl)-3,6-dihydro-2-thioxo-6-oxo-3-methyl-4-trifluoromethyl-1(2H)-pyrimidine]	100	100	100	0	100	100	100	5
–	CCS(=O)(=O)Nc1cc(-n2c(=O)cc(C(F)(F)F)n(C)c2=S)c(F)cc1C#N [Example 4, 1-(4-cyano-2-fluoro-5-ethylsulphonylamino-phenyl)-3,6-dihydro-2-thio-6-oxo-3-methyl-4-trifluoromethyl-1(2H)-pyrimidine]	–	100	100	0	100	100	100	5
122	CCS(=O)(=O)N(c1cc(-n2c(=O)cc(C(F)(F)F)n(C)c2=S)c(F)cc1C#N)S(C)(=O)=O [Example 32, 1-(4-cyano-2-fluoro-5-(N-ethylsulphonyl-N-methylsulphonyl-amino)-phenyl)-3,6-dihydro-2-thio-6-oxo-3-methyl-4-trifluoromethyl-1(2H)-pyrimidine]	–	–	–	–	–	–	–	–
68	CCS(=O)(=O)N(C)c1cc(-n2c(=O)cc(C(F)(F)F)n(C)c2=S)c(F)cc1C#N [Example 33, 1-(4-cyano-2-fluoro-5-(N-ethylsulphonyl-N-methyl-amino)-phenyl)-3,6-dihydro-2-thio-6-oxo-3-methyl-4-trifluoromethyl-1(2H)-pyrimidine]	–	–	–	–	–	–	–	–
